Read-outs that look alike come from different tables or passages of the source.
Tests used:
[1] = Phase 1 PK Part 1: relative bioavailability, dose proportionality, food effect of unmilled API tablet; type: in vivo, human; conditions: for Tmax: median
Description: This is a Phase 1, open-label, single dose, multicenter, 4-part study in healthy adult participants.
Potential participants will be screened from Day −28 to Day −2 to determine participants' eligibility for study participation. For Part 1, qualified participants will be admitted on Day −1 of each treatment period and will remain in-house for the total duration of the treatment (Day −1 until Day 5, with single-dose treatment on Day 1 and 96 hours of PK), whereas for Part 2, PK sampling will be done up to 120 hours (Day 6). Each dosed participant will have a safety follow-up on Day 10 to Day 14 after last dose of the study intervention.
The Part 1 of the study involves determination of relative bioavailability for tablet (Formulation Concept 1, i.e., unmilled aticaprant formulation, see Table 10) and capsule formulations (see Example 6, study design, for description of capsule formulation) and dose proportionality and food effect for tablet formulation (Formulation Concept 1) in healthy adult participants (FIG. 25). Part 1 will consist of Subpart 1A and Subpart 1B consisting of a total of 4 periods. […] Participants will be assigned to 1 of 6 treatment sequences (Table 51) and will be administered the 3 treatments in a 3-way crossover. The same 24 participants who complete Subpart 1A will be enrolled in Subpart 1B. Subpart 1B consists of a fourth period to evaluate the food effect of a single dose of 10 mg aticaprant administered as 1×10 mg oral tablet (Formulation Concept 1) under fed conditions (Treatment D; Table 50 and Table 52). A preliminary PK analysis will be conducted at the end of the food effect part (Subpart 1B) for all the periods from Part 1 and will include the food effect data.
Secondary Objectives: • To assess the safety and tolerability of oral doses of aticaprant in healthy adult participants. Part 2
For each individual participant, there will be a washout period of at least 7 days for Part 1 and at least 8 days for Part 2 between subsequent intakes of the study intervention. Day 1 of a treatment period (day of study intervention intake) is the first day of the washout period (also in between the study parts, if applicable).
Participants will be fasting in Part 1A and Part 2A. Participants will have been fed in Parts 1B and 2B. For a fasted condition, participants will fast (nothing to cat or drink except noncarbonated water) overnight for at least 10 hours before and until 4 hours after study intervention administration during each fasted treatment period. Approximately, 4 hours post-dose and after the 4-hour PK sampling, a standard lunch will be served at the study-site. Intake of water is allowed until 2 hours before the intake of the study intervention. Thereafter, water intake is only allowed for study intervention intake and for breakfast, if applicable. Drinking of water is allowed ad libitum from approximately 2 hours after dosing. For a fed condition, participants will consume, after an overnight fast (at least 10 hours), a standardized high-fat breakfast within a 20-minute period. […] Study intervention will be administered approximately 30 minutes after the start of the breakfast.
In Parts 1 and 2, plasma concentrations will be determined for aticaprant. Blood samples for determination of plasma concentrations of aticaprant will be collected predose and at the postdose time points starting on Day 1 as indicated in the Tables 57-58.
The following plasma PK parameters of aticaprant will be determined. A noncompartmental model with extravascular input will be used for the pharmacokinetic analysis.
Based on the individual concentration-time data, using the actual sampling times, the following PK parameters will be derived for aticaprant: […]

[2] = Plasma Cmax of aticaprant in subjects with MDD (Example 6); type: in vivo; conditions: human, oral, 10 mg, 10 mg once daily, read-out: Cmax, Arithmetic Mean (SD)
Source text: vi. To assess the plasma PK of aticaprant in subjects with MDD and explore its relationship with efficacy and safety parameters.
Cmax is defined as maximum plasma concentration of aticaprant. […] Here ‘N’ (number of subjects analyzed) includes the number of subjects evaluable for this endpoint. Here ‘n’ (number analyzed) included all subjects evaluable for specified time point categories.

[3] = Dose proportionality: C (Test, 5 mg tablet normalized to 10 mg) vs B (Reference, 10 mg tablet), fasting
[4] = Food effect: Treatment D (high-fat breakfast, Test)/Treatment B (fasting, Reference), 10 mg Formulation Concept 1
[5] = Relative BA: Treatment B (10 mg tablet, Test)/Treatment A (2 × 5 mg capsule, Reference), fasting
[6] = Treatment A: 2 × 5 mg oral capsule, fasting, mean
[7] = Treatment B: 1 × 10 mg Formulation Concept 1 (unmilled API tablet), fasting, mean
[8] = Treatment C (1 × 5 mg Formulation Concept 1, fasting), 5 mg dose normalized to 10 mg, mean (SD)
[9] = Treatment C: 1 × 5 mg Formulation Concept 1 (unmilled API tablet), fasting, mean
[10] = Treatment D: 1 × 10 mg Formulation Concept 1 (unmilled API tablet), after high-fat breakfast, mean
[11] = human, plasma, oral, 5 mg, Treatment C: 1 × 5 mg Formulation Concept 1 (unmilled API tablet), fasting, mean
[12] = human, plasma, oral, 10 mg, Treatment B: 1 × 10 mg Formulation Concept 1 (unmilled API tablet), fasting, mean
[13] = human, plasma, oral, 10 mg, Treatment D: 1 × 10 mg Formulation Concept 1 (unmilled API tablet), after high-fat breakfast, mean
[14] = human, plasma, po, 10 mg, Treatment A: 2 × 5 mg oral capsule, fasting, mean

SMILES: Cc1cc(C)cc(C2CCCN2Cc2ccc(Oc3ccc(C(N)=O)cc3F)cc2)c1 (stereo not shown) [aticaprant, 3-fluoro-4-4-2-(3,5-dimethylphenyl)pyrrolidin-1-yl-methylphenoxybenzamide]
- Geometric Mean Cmax ([1]; Dose proportionality, completers, Treatment B (Reference): 1 × 10 mg Formulation Concept 1, fasting): 32.8 ng/mL
- Ratio of Geometric Means, AUClast [1, 3]: 103.20%
- Ratio of Geometric Means, AUC∞ [1, 3]: 103.93%
- Ratio of Geometric Means, Cmax [1, 3]: 102.12%
- Geometric Mean Cmax ([1]; Food effect, completers, Treatment B (Reference): 1 × 10 mg Formulation Concept 1, fasting): 32.6 ng/mL
- Ratio of Geometric Means, AUClast [1, 4]: 144.01%
- Ratio of Geometric Means, AUC∞ [1, 4]: 143.84%
- Ratio of Geometric Means, Cmax [1, 4]: 112.49%
- Geometric Mean Cmax ([1]; Relative BA, completers, Treatment B (Test): 1 × 10 mg Formulation Concept 1, fasting): 32.8 ng/mL
- Ratio of Geometric Means, AUClast [1, 5]: 93.31%
- Ratio of Geometric Means, AUC∞ [1, 5]: 94.14%
- Ratio of Geometric Means, Cmax [1, 5]: 108.64%
- CL/F [1, 6]: 34.5 L/h
- Λz [1, 6]: 0.030 h⁻¹
- CL/F [1, 7]: 36.2 L/h
- Cmax [1, 7]: 34.1 ng/mL
- Λz [1, 7]: 0.029 h⁻¹
- AUClast, C Dose Normalized [1, 8]: 286 (79.7) h * ng/mL
- AUC∞, C Dose Normalized [1, 8]: 309 (86.4) h * ng/mL
- Cmax, C Dose Normalized [1, 8]: 33.9 (8.97) ng/mL
- CL/F [1, 9]: 35.8 L/h
- Λz [1, 9]: 0.035 h⁻¹
- CL/F [1, 10]: 25.0 L/h
- Λz [1, 10]: 0.031 h⁻¹
- AUC(0-t) ([1]; human, plasma, oral, 5 mg, Dose proportionality, completers, Treatment C (Test): 1 × 5 mg Formulation Concept 1, fasting, 5 mg dose normalized to 10 mg, read-out: Geometric Mean AUClast): 280 ng·h/mL
- AUC(0-inf) ([1]; human, plasma, oral, 5 mg, Dose proportionality, completers, Treatment C (Test): 1 × 5 mg Formulation Concept 1, fasting, 5 mg dose normalized to 10 mg, read-out: Geometric Mean AUC∞): 299 ng·h/mL
- Vd/F [1, 11]: 1150 L
- half-life [1, 11]: 24.7 h
- AUC(0-t) ([1]; human, plasma, oral, 5 mg, Treatment C: 1 × 5 mg Formulation Concept 1 (unmilled API tablet), fasting, mean, read-out: AUClast): 143 ng·h/mL
- AUC(0-inf) ([1]; human, plasma, oral, 5 mg, Treatment C: 1 × 5 mg Formulation Concept 1 (unmilled API tablet), fasting, mean, read-out: AUC∞): 155 ng·h/mL
- Cmax ([1]; human, plasma, oral, 5 mg, Treatment C: 1 × 5 mg Formulation Concept 1 (unmilled API tablet), fasting, mean, read-out: Cmax): 17 ng/mL
- Tmax ([1]; human, plasma, oral, 5 mg, Treatment C: 1 × 5 mg Formulation Concept 1 (unmilled API tablet), fasting): 1.5 h
- AUC(0-t) ([1]; human, plasma, oral, 10 mg, Dose proportionality, completers, Treatment B (Reference): 1 × 10 mg Formulation Concept 1, fasting, read-out: Geometric Mean AUClast): 271 ng·h/mL
- AUC(0-inf) ([1]; human, plasma, oral, 10 mg, Dose proportionality, completers, Treatment B (Reference): 1 × 10 mg Formulation Concept 1, fasting, read-out: Geometric Mean AUC∞): 287 ng·h/mL
- AUC(0-t) ([1]; human, plasma, oral, 10 mg, Food effect, completers, Treatment B (Reference): 1 × 10 mg Formulation Concept 1, fasting, read-out: Geometric Mean AUClast): 270 ng·h/mL
- AUC(0-inf) ([1]; human, plasma, oral, 10 mg, Food effect, completers, Treatment B (Reference): 1 × 10 mg Formulation Concept 1, fasting, read-out: Geometric Mean AUC∞): 287 ng·h/mL
- AUC(0-t) ([1]; human, plasma, oral, 10 mg, Food effect, completers, Treatment D (Test): 1 × 10 mg Formulation Concept 1, after high-fat breakfast, read-out: Geometric Mean AUClast): 388 ng·h/mL
- AUC(0-inf) ([1]; human, plasma, oral, 10 mg, Food effect, completers, Treatment D (Test): 1 × 10 mg Formulation Concept 1, after high-fat breakfast, read-out: Geometric Mean AUC∞): 413 ng·h/mL
- Cmax ([1]; human, plasma, oral, 10 mg, Food effect, completers, Treatment D (Test): 1 × 10 mg Formulation Concept 1, after high-fat breakfast, read-out: Geometric Mean Cmax): 36.6 ng/mL
- AUC(0-t) ([1]; human, plasma, oral, 10 mg, Relative BA, completers, Treatment B (Test): 1 × 10 mg Formulation Concept 1, fasting, read-out: Geometric Mean AUClast): 271 ng·h/mL
- AUC(0-inf) ([1]; human, plasma, oral, 10 mg, Relative BA, completers, Treatment B (Test): 1 × 10 mg Formulation Concept 1, fasting, read-out: Geometric Mean AUC∞): 287 ng·h/mL
- Vd/F [1, 12]: 1340 L
- half-life [1, 12]: 26.6 h
- AUC(0-t) ([1]; human, plasma, oral, 10 mg, Treatment B: 1 × 10 mg Formulation Concept 1 (unmilled API tablet), fasting, mean, read-out: AUClast): 283 ng·h/mL
- AUC(0-inf) ([1]; human, plasma, oral, 10 mg, Treatment B: 1 × 10 mg Formulation Concept 1 (unmilled API tablet), fasting, mean, read-out: AUC∞): 301 ng·h/mL
- Tmax ([1]; human, plasma, oral, 10 mg, Treatment B: 1 × 10 mg Formulation Concept 1 (unmilled API tablet), fasting): 1.5 h
- Vd/F [1, 13]: 835 L
- half-life [1, 13]: 24.5 h
- AUC(0-t) ([1]; human, plasma, oral, 10 mg, Treatment D: 1 × 10 mg Formulation Concept 1 (unmilled API tablet), after high-fat breakfast, mean, read-out: AUClast): 398 ng·h/mL
- AUC(0-inf) ([1]; human, plasma, oral, 10 mg, Treatment D: 1 × 10 mg Formulation Concept 1 (unmilled API tablet), after high-fat breakfast, mean, read-out: AUC∞): 425 ng·h/mL
- Cmax ([1]; human, plasma, oral, 10 mg, Treatment D: 1 × 10 mg Formulation Concept 1 (unmilled API tablet), after high-fat breakfast, mean, read-out: Cmax): 37.7 ng/mL
- Tmax ([1]; human, plasma, oral, 10 mg, Treatment D: 1 × 10 mg Formulation Concept 1 (unmilled API tablet), after high-fat breakfast): 2.75 h
- AUC(0-t) ([1]; human, plasma, po, 10 mg, Relative BA, completers, Treatment A (Reference): 2 × 5 mg oral capsule, fasting, read-out: Geometric Mean AUClast): 291 ng·h/mL
- AUC(0-inf) ([1]; human, plasma, po, 10 mg, Relative BA, completers, Treatment A (Reference): 2 × 5 mg oral capsule, fasting, read-out: Geometric Mean AUC∞): 305 ng·h/mL
- Cmax ([1]; human, plasma, po, 10 mg, Relative BA, completers, Treatment A (Reference): 2 × 5 mg oral capsule, fasting, read-out: Geometric Mean Cmax): 30.2 ng/mL
- Vd/F [1, 14]: 1250 L
- half-life [1, 14]: 26.3 h
- AUC(0-t) ([1]; human, plasma, po, 10 mg, Treatment A: 2 × 5 mg oral capsule, fasting, mean, read-out: AUClast): 304 ng·h/mL
- AUC(0-inf) ([1]; human, plasma, po, 10 mg, Treatment A: 2 × 5 mg oral capsule, fasting, mean, read-out: AUC∞): 315 ng·h/mL
- Cmax ([1]; human, plasma, po, 10 mg, Treatment A: 2 × 5 mg oral capsule, fasting, mean, read-out: Cmax): 31.2 ng/mL
- Tmax ([1]; human, plasma, po, 10 mg, Treatment A: 2 × 5 mg oral capsule, fasting): 1.5 h
- Cmax ([2]; Week 1, eITT): 32.7 ± 10.9 ng/mL
- Cmax ([2]; Week 3, eITT): 33.5 ± 11.1 ng/mL
- Cmax ([2]; Week 6, eITT): 34.3 ± 11.1 ng/mL
